Biological target: T1, mouse HCN2 (Mus musculus, UniProt O88703)
T1 sequence (O88703 1-863): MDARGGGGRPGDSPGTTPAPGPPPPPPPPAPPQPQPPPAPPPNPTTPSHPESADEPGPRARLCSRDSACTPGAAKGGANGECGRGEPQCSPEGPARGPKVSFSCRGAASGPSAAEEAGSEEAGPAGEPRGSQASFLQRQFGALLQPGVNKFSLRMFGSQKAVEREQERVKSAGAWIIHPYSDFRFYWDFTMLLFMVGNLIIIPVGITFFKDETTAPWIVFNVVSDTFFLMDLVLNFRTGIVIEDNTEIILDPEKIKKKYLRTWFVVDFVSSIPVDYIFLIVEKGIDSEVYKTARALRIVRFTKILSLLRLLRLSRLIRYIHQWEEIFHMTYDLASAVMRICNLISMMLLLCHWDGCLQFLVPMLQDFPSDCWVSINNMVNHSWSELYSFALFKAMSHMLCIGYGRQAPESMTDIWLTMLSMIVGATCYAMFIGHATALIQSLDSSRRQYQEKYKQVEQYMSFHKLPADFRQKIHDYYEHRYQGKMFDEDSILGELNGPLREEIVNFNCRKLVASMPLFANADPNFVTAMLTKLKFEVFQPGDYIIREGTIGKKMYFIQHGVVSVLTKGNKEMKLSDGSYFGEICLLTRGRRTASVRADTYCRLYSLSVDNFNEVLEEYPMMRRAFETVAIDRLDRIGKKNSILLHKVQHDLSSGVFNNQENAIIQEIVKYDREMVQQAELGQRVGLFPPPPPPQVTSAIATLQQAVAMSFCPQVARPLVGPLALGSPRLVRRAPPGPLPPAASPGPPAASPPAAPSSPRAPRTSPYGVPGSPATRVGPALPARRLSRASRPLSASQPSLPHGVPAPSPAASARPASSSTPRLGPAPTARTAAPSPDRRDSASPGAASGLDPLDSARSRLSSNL
Test: patch clamp, excised inside-out patches from HEK cells
Type: biochemical
Conditions: open-channel pore blocker

SMILES: CCN(c1ccccc1)c1cc(NC)[n+](C)c(C)n1 [ZD7288]
- % inhibition at 200 μM: mean relative inhibition of zebrafish HCNL1 and mouse HCN2 in response to ZD7288

— article PMC7306766 (Proceedings of the National Academy of Sciences of the …, 2020)
